Laboratory results as given in paper PMC6394990, “Detailed characterization of the solution kinetics and thermodynamics of biotin, biocytin and HABA binding to avidin and streptavidin” (PLoS ONE, 2019).
Where “and” joins values, the source holds several entries; their conditions need not be identical. Equal values may be shown once. Read-outs that look alike come from different tables or passages of the source. Marks after values point to notes of the source that are not given here.

Key:
streptavidin (SAV) [1] = target: T1, streptavidin (SAV) (Streptomyces avidinii, UniProt P22629); details: cited from earlier work
T1 construct: purchased Sigma Aldrich (St. Louis, MO)

avidin (AV) [2] = target: T2, avidin (AV) (Gallus gallus, UniProt P02701); assay: Literature calorimetry reaction thermodynamics; type: binding; details: AV-B7, average of the reported values
T2 construct: purchased Calbiochem (La Jolla, CA)

streptavidin (SAV) [3] = target: T1, streptavidin (SAV); assay: Literature calorimetry reaction thermodynamics; type: binding; details: SAV-B7, average of the reported values
avidin (AV) [4] = target: T2, avidin (AV); details: AV-B7, cited from earlier work
avidin (AV) [5] = target: T2, avidin (AV); assay: Relaxation kinetics of unlabeled biotin reacting with the AV-HABA complex; type: binding; details: pH 8 and 23°C; read-out: konB, association rate of unlabeled B7 to the final site (AV-HABA3)
Procedure: All of the following protein concentrations are presented on a binding site basis, thus in the case of the HABA association reactions for AV were measured at 23.0 ± 0.1°C with a concentration of 87 μM HABA and 7.7 μM AV. The AV-HABA relaxation reactions were conducted with a preformed AV-HABA complex made up of 200 μM HABA and 10 μM AV, flowed against varying amounts of B7 from 100 μM up to 4000 μM for a [HABA]/[B7] ratio that ranged from 0.05 to 2.
The relaxation experiments were prepared at concentrations in which HABA occupies all sites (AV-HABA4). Biotin replaces HABA relative to the koff of the dye as shown for the first step (Eq 1) and then repeated for all sites. Having greater affinity, B7 occupies all sites at the end of the reaction and the measured kon is related to the affinities of the ligand bound protein.
The reaction is monitored by the HABA absorbance changes at 500 nm as it is replaced by unlabeled B7; yielding the relaxation constant of the reaction (Relaxation, Eq 2) which contains information of the B7 association rate constant of the open binding site, k1AV−HABA3 to form a full saturated complex (AV-HABA4) and the dissociation rate of that full complex, k−1AV−HABA4 , to yield a complex with three HABA molecules (AV-HABA3). In the subsequent steps, B7 replaces HABA as the ligand but the release of HABA creates an unoccupied site that remains in the same state. In summary, the experiment was designed to acquire the pseudo-first order association rate constant of B7 binding ( konB ) to the solely free binding site in a complex occupied by three HABA molecules (AV-HABA3).
The reciprocal of the relaxation constant (1/Relaxation) is plotted vs. the [HABA]/[B] concentration ratio (Eq 3) allowing to calculate: k−1AV−HABA4 and k1AV−HABA3 by solving for the intercept ( 1/k−1AV−HABA4 ) and the respective slope: m=k1AV−HABA3/(k−1AV−HABA4∙konB) . The exponential decays were analyzed by the method of Foss. There was no departure from simple first order decay in the relaxation, justifying the use of the following model and equations.

avidin (AV) [6] = target: T2, avidin (AV); details: cited from earlier work; for ΔG° ^ǂ, Backward / ΔS° ^ǂ, Backward: calculated from the plotted data; for Ea^Backward: ref 18
streptavidin (SAV) [7] = target: T1, streptavidin (SAV); assay: Literature kinetics, affinity and dissociation (backward) activation parameters; type: binding; details: SAV-B7, average of the reported values
streptavidin (SAV) [8] = target: T1, streptavidin (SAV); assay: Absorbance and fluorescence emission spectra, SAV complex; type: physicochemical
Procedure: The lifetimes (τ), steady state anisotropies (rss), time-resolved anisotropies (rt) and quantum yields (QY) of the complexes (at 20 ± 0.1°C and pH 8) were collected with a dye-labeled B7 probe concentration of 20–40 nM and 1040–2080 nM of either protein (AV or SAV) to ensure that only one binding site in the tetramer was filled with a ligand (AB1 filling model).
The QY values were obtained by using a reference fluorophore of known quantum yield and were calculated according to Parker and Rees, where the reference dye was fluorescein in 0.1N sodium hydroxide solution [46]. The emission fluorescence scans were collected from 480 nm to 700 nm with the excitation light set at 460 nm provided by the xenon arc lamp described above. These measurements were made on the AB1 complexes at high protein concentration.
Supplementary file pone.0204194.s001.docx: S1 Fig Absorbance spectra of dye-labeled B7 probes and respective complexes with AV and SAV. […] The spectra are normalized to the calculated molar absorptivies. The distortion of the SAV-BFl absorbance spectrum (B panel) is caused by the presence of Fl^2- and Fl^1-. The labeled probes and protein concentrations were 1 μM and 10 μM, respectively. (DOCX) Click here for additional data file.
Supplementary file pone.0204194.s002.docx: S2 Fig Fluorescence emission spectra of dye-labeled B7 and respective complexes with AV and SAV. […] The probe and protein concentrations were 20 nM and 1040 nM (AB1 filling model), respectively. (DOCX) Click here for additional data file.

[9] = SAV complex, mono-ionic fluorescein species

T2 sequence (P02701 25-152): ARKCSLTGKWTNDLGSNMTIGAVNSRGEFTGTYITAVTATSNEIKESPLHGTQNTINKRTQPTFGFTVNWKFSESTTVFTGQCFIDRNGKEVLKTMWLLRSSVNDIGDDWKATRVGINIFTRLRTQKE
T1 sequence (P22629 25-183): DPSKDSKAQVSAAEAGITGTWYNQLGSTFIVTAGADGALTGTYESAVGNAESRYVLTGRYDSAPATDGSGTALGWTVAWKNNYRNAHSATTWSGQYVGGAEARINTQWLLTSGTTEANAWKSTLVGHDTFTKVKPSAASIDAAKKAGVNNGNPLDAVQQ

O=C(O)CCCC[C@@H]1SC[C@@H]2NC(=O)N[C@@H]21 [B7, d-biotin]
ΔG° ^ǂ, Backward (streptavidin (SAV) [1]; SAV-B7, calculated at 25°C): 24.8 ± 0.3 kcal/mol and 24.8 ± 0.3 80,f kcal/mol
ΔG° ^ǂ, Backward (streptavidin (SAV) [1]; SAV-B7, calculated at 25°C, listed as B): 24.8 ± 0.3 53,b kcal/mol
ΔS° ^ǂ, Backward (streptavidin (SAV) [1]; SAV-B7, calculated from the plotted data): 29.9 ± 2.0 cal/mol°K and 29.9 ± 2.0 18 e cal/mol°K
ΔS° ^ǂ, Backward (streptavidin (SAV) [1]; SAV-B7, calculated from the plotted data, listed as B): 29.9 ± 2.0 6,a cal/mol°K
ΔS° ^ǂ, Backward (streptavidin (SAV) [1]; SAV-B7, ref 39, 80, 82): 18.8 ± 0.3 cal/mol°K and 18.8 ± 0.3 36,80,81 cal/mol°K
ΔS° ^ǂ, Backward (streptavidin (SAV) [1]; SAV-B7, ref 39, 80, 82, listed as B): 18.8 ± 0.3 20, 53, 55 cal/mol°K
Ea^Backward (streptavidin (SAV) [1]; SAV-B7, ref 39, 80): 30.4 ± 0.2 kcal/mol and 30.4 ± 0.2 36,80 kcal/mol
Ea^Backward (streptavidin (SAV) [1]; SAV-B7, ref 39, 80, listed as B): 30.4 ± 0.2 20, 53 kcal/mol
ΔG° ^ǂ, Backward (streptavidin (SAV) [1]; SAV-B7, ref 39, 82): 24.6 ± 0.3 kcal/mol and 24.6 ± 0.3 36,81 kcal/mol
ΔG° ^ǂ, Backward (streptavidin (SAV) [1]; SAV-B7, ref 39, 82, listed as B): 24.6 ± 0.3 20, 55 kcal/mol
ΔG° ^ǂ, Backward (streptavidin (SAV) [1]; SAV-B7, ref 47): 21.4 ± 2.0 kcal/mol and 21.4 ± 2.0 44 kcal/mol
ΔG° ^ǂ, Backward (streptavidin (SAV) [1]; SAV-B7, ref 47, listed as B): 21.4 ± 1.0 6 kcal/mol
koff replacement (streptavidin (SAV) [1]; SAV-B7, ref 68): 2.4e-06 s⁻¹
Ea^Backward (streptavidin (SAV) [1]; SAV-B7, ref 81): 32.0 kcal/mol and 32 kcal/mol
ΔS° ^ǂ, Backward (streptavidin (SAV) [1]; SAV-B7, ref 81): 25.8 cal/mol°K and 25.8 82 cal/mol°K
Ea^Backward (streptavidin (SAV) [1]; SAV-B7, ref 81, listed as B): 32.0 56 kcal/mol
ΔS° ^ǂ, Backward (streptavidin (SAV) [1]; SAV-B7, ref 81, listed as B): 25.8 56 cal/mol°K
Ea^Backward (streptavidin (SAV) [1]; SAV-B7, ref 82): 25.8 ± 1.2 kcal/mol and 25.8 ± 1.2 81 kcal/mol
Ea^Backward (streptavidin (SAV) [1]; SAV-B7, ref 82, listed as B): 25.8 ± 1.2 55 kcal/mol
kon (streptavidin (SAV) [1]; SPR, immobilized B7, 4°C): 5.1e+06 M⁻¹ s⁻¹
kon (streptavidin (SAV) [1]; stopped-flow, tryptophan fluorescence quenching, 25°C and pH 7): 7.5 ± 0.6 × 10^7 M^-1s^-1
ΔG°rxn, averaged value (avidin (AV) [2]): -20.7 ± 0.3 kcal/mol
ΔH°rxn, averaged value (avidin (AV) [2]): -23.2 ± 1.7^d kcal/mol and -23.2 ± 1.7 d kcal/mol
ΔG°rxn, averaged value (avidin (AV) [2]; listed as B): -20.7 ± 1.0 kcal/mol
ΔH°rxn, averaged value (avidin (AV) [2]; listed as B): -23.2 ± 1.0 kcal/mol
ΔG°rxn, averaged value (streptavidin (SAV) [3]): -18.2 ± 0.2 kcal/mol
ΔH°rxn, averaged value (streptavidin (SAV) [3]): -24.8 ± 2.0 kcal/mol
ΔG°rxn, averaged value (streptavidin (SAV) [3]; listed as B): -18.2 ± 0.1 kcal/mol
ΔH°rxn (avidin (AV) [4]; ref 39): -26.7 kcal/mol and -26.7 36 kcal/mol
ΔH°rxn (avidin (AV) [4]; ref 39, listed as B): -26.7 20 kcal/mol
ΔG°rxn (avidin (AV) [4]; ref 76): -20.5 kcal/mol and -20.5 77 kcal/mol
ΔH°rxn (avidin (AV) [4]; ref 76): -20.3 ± 0.3 kcal/mol and -20.3 ± 0.377 kcal/mol
ΔG°rxn (avidin (AV) [4]; ref 76, listed as B): -20.5 50 kcal/mol
ΔH°rxn (avidin (AV) [4]; ref 76, listed as B): -20.3 ± 0.3 50 kcal/mol
ΔH°rxn (avidin (AV) [4]; ref 77): -22.5 ± 0.1 kcal/mol and -22.5 ± 0.1 78 kcal/mol
ΔH°rxn (avidin (AV) [4]; ref 77, listed as B): -22.5 ± 0.1 52 kcal/mol
ΔG°rxn (avidin (AV) [4]; ref 78): -20.8 kcal/mol and -20.8 79 kcal/mol
ΔH°rxn (avidin (AV) [4]; ref 78): -23.4 ± 0.3 kcal/mol and -23.4 ± 0.3 79 kcal/mol
ΔS°rxn (avidin (AV) [4]; ref 78): -8.9 [78] cal/mol°K and -8.9 79 cal/mol°K
ΔG°rxn (avidin (AV) [4]; ref 78, listed as B): -20.8 51 kcal/mol
ΔH°rxn (avidin (AV) [4]; ref 78, listed as B): -23.4 ± 0.3 51 kcal/mol
ΔS°rxn (avidin (AV) [4]; ref 78, listed as B): -8.9 51 cal/mol°K
kon (avidin (AV) [5]): 5.3e+06 ± 9e+11 M⁻¹ s⁻¹
ΔG° ^ǂ, Backward (avidin (AV) [6]; AV-B7): 24.7 ± 2.0 [18]^e kcal/mol and 24.7 kcal/mol
ΔS° ^ǂ, Backward (avidin (AV) [6]; AV-B7): 43.0 ± 2.0 [18]^e cal/mol°K and 43 cal/mol°K
ΔG° ^ǂ, Backward (avidin (AV) [6]; AV-B7, listed as B): 24.7 ± 1.0 6,a kcal/mol
ΔS° ^ǂ, Backward (avidin (AV) [6]; AV-B7, listed as B): 43.0 ± 2.0 6,a cal/mol°K
Ea^Backward (avidin (AV) [6]; AV-B7): 37.6 ± 2.0 [18] kcal/mol and 37.6 kcal/mol
Ea^Backward (avidin (AV) [6]; AV-B7, listed as B): 37.6 ± 1.0 6,a kcal/mol
koff replacement (avidin (AV) [6]; AV-B7, ref 35): 9e-08 s⁻¹
kon (avidin (AV) [6]; Surface Plasmon Resonance, 20°C, pH 7.4 in HEPES buffer): 2.0 ± 0.3 × 10^6 M^-1s^-1
half-life of the AV-B7 complex (avidin (AV) [6]): 90 days
kon (avidin (AV) [6]; pH 5 and 25°C, 14C-biotin quenching experiment): 7e+07 M⁻¹ s⁻¹
Ea^Backward, averaged value (streptavidin (SAV) [7]): 29.4 ± 2.6 kcal/mol and 29.4 kcal/mol
ΔG° ^ǂ, Backward, averaged value (streptavidin (SAV) [7]): 23.6 ± 1.5 kcal/mol and 23.6 kcal/mol
ΔS° ^ǂ, Backward, averaged value (streptavidin (SAV) [7]): 24.8 ± 4.5 cal/mol°K and 24.8 cal/mol°K
ΔG° ^ǂ, Backward, averaged value (streptavidin (SAV) [7]; listed as B): 23.6 ± 1.0 kcal/mol
ΔS° ^ǂ, Backward, averaged value (streptavidin (SAV) [7]; listed as B): 24.8 ± 2.5 cal/mol°K

O=C(CCCC[C@@H]1SC[C@@H]2NC(=O)N[C@@H]21)NCCNC(=O)c1ccc(-c2c3ccc(=O)cc-3oc3cc(O)ccc23)c(C(=O)O)c1 [BFl, Biotin-4-fluorescein]
Maximum Absorbance (streptavidin (SAV) [8]; SAV complex, di-ionic fluorescein species): 494 nm
Maximum Absorbance (streptavidin (SAV) [8]; [9]): 472 nm
Maximum Emission (streptavidin (SAV) [8]; [9]): 515 nm
Emission (nm) (streptavidin (SAV) [8]; complex with SAV): 524 nm
